Experimental data published in patent publication US11965886B2, “Method of immobilizing a cell on a support using compounds comprising a polyethylene glycol moiety” (Roche Diagnostics Operations, Inc., priority 2013, dated 2024).
“And” between values parts separate entries of the source, which are not always exact repeats. Identical values can stand only once. Like-named read-outs stand apart in the source and are kept apart here.

Legend:
[1] = system: WBC; experiment: WBC recovery rate after centrifugation (cell stabilization, Example 5); format: cell-based; details: Centrifugation: 20 min, 300×g; 10 min, 1 h, 2 h incubation
Procedure: A) WBC Recovery Rate after Centrifugation and Cell Immobilization Using Different Molecules
Centrifugation characteristics: 10 min, 300×g.
B) WBC Recovery Rate after Centrifugation Using Different Compounds—Different Points of Time
Centrifugation characteristics: 10 min, 300×g. A: Choleseryl-TEG-Cholesteryl-TEG-(SpacerC18)7-Fluos-Biotin-TEG.
C) WBC Recovery Rate after Centrifugation—Different Experimenters
Centrifugation characteristics: 10 min, 300×g. Molecule: Cholesteryl-TEG-Cholesteryl-TEG-(SpacerC18)7-Fluos-Biotin-TEG.
D) WBC Recovery Rate after Centrifugation—Different Points of Time and Centrifugation Settings
Centrifugation characteristics: 20 min, 300×g.

[2] = system: WBC; experiment: as above; format: cell-based; details: Centrifugation: 20 min, 500×g
[3] = system: WBCs; experiment: Immobilization of cells: recovery rate of cells on SA (streptavidin) plate or untreated plate (Example 3); format: cell-based
Procedure: The following applies for modular description of the compounds below: X=hydrophobic moiety, […]=fluorescein In the following experiment, the recovery rate of cells was determined.

[4] = system: white blood cells (WBCs)
Procedure: In particular, the performance of a single cholesterol-molecule and different dual-linker molecules (i.e. containing two hydrophobic moieties) was tested. In detail, immobilization of white blood cells (WBCs) on a Streptavidin-coated surface using different linker molecules was tested on a 12-well plate: 300 000 WBCs/well. This was followed by the measurement of the cell recovery rate after immobilization and washing of the cells using the Cellavista instrument (10× Nuclei Operator s9s5).

[5] = system: CHO; experiment: Labelling of cells using compounds (staining/uptake); format: cell-based
From the text: (§1) 2. Labelling of Cells Using Compounds Useful in Methods of the Invention

[6] = system: COS 7; experiment: as above; format: cell-based
From the text: as §1

[7] = system: Epithelial cells; experiment: as above; format: cell-based
From the text: as §1

[8] = system: Hela; experiment: as above; format: cell-based
From the text: as §1

[9] = system: Jurkats; experiment: as above; format: cell-based
From the text: as §1

[10] = system: MDA-MB468; experiment: as above; format: cell-based
From the text: as §1

[11] = system: NIH 3T3; experiment: as above; format: cell-based
From the text: as §1

[12] = system: U937; experiment: as above; format: cell-based
From the text: as §1

[13] = system: MDAs in WBCs; experiment: Immobilization of cells: recovery rate of MDAs spiked in WBCs on SA-plate (Example 3); format: cell-based
Procedure: The following applies for modular description of the compounds below:
X=hydrophobic moiety, Y=PEG2000, Z=Biotin-TEG, F=Fluos=fluorescein
In the following experiment, the recovery rate of cells was determined.

[14] = system: WBCs; experiment: Labelling of cells using compounds (staining/uptake); format: cell-based
From the text: as §1

[15] = Sample 1, first block (concentration not given), 300 000 WBCs/well
[16] = Sample 2, compound concentration: 100 pmol/10e6 WBCs
[17] = Sample 2, compound concentration: 1 nmol/10e6 WBCs

3′-(Myristic acid)2-PEG2000-dT-Biotin-TEG-5′ INVERS [compound 1255]
WBC recovery rate after centrifugation, performance ranking [1]: followed by compound 1255 and 1254 | WBC recovery rate after centrifugation, performance ranking [2]: followed by molecule 1255 and 1254

5′-(Cholesteryl-TEG)2-Spacer C18-Fluos-Biotin_TEG-3′ INVERS [29.891254]
Recovery Rate ([3]; 10 pmol/10e6 cells): 40.30% | Recovery Rate ([3]; 100 pmol/10e6 cells): 64.60% and 57.63% and 65.69% and 70.07% and 81.28% | Recovery Rate ([3]; 1 nmol/10e6 cells): 92.50% and 82.19% and 81.79% and 74.68% | Recovery Rate ([3]; 10 nmol/10e6 cells): 83.60% | Recovery Rate [4, 15]: 57.63% | cells counted per well [4, 15]: 157660 and 190148 and 170850 | Recovery Rate ([4]; Sample 1, compound concentration: 1 nmol/10e6 WBCs): 82.19% | cells counted per well ([4]; Sample 1, compound concentration: 1 nmol/10e6 WBCs, 300 000 WBCs/well): 244649 and 234262 and 260760 | Mean (cells counted per well) [4, 16]: 197067.00 | Recovery Rate [4, 16]: 65.69% | cells counted per well ([4]; Sample 2, compound concentration: 100 pmol/10e6 WBCs, 300 000 WBCs/well): 205917 and 185100 and 200184 | Mean (cells counted per well) [4, 17]: 245376.00 | Recovery Rate [4, 17]: 81.79% | cells counted per well ([4]; Sample 2, compound concentration: 1 nmol/10e6 WBCs, 300 000 WBCs/well): 247428 and 244396 and 244304 | WBC recovery rate after centrifugation, performance ranking [1]: followed by compound 1255 and 1254 | WBC recovery rate after centrifugation, performance ranking [2]: followed by molecule 1255 and 1254

5′-CholesterylTEG-CholesterylTEG-(SpacerC18)7-dT(Determ. of concentration)-BiotinTEG-3′ [compound 1234]
Recovery Rate ([3]; 10 pmol/10e6 cells): 9.6% | Recovery Rate ([3]; 100 pmol/10e6 cells): 18.8% | Recovery Rate ([3]; 300 pmol/10e6 cells): 26.8% | Recovery Rate ([3]; 500 pmol/10e6 cells): 24.9% | Recovery Rate ([3]; 10 nmol/10e6 cells): 99.7% | Recovery Rate ([3]; WBCs, 350 pmol/10e6 cells, 0.000003% Tween21): 13.0% and 25.0% | Recovery Rate ([3]; WBCs, 350 pmol/10e6 cells, 0.00001% Tween20): 14.0% and 23.0% | Recovery Rate ([3]; WBCs, 350 pmol/10e6 cells, 0.00003% Tween20): 12.0% and 20.0% | Recovery Rate ([3]; WBCs, 350 pmol/10e6 cells, 0.00003% Tween22): 22.0% and 36.0% | Recovery Rate ([3]; WBCs, 350 pmol/10e6 cells, 0.0001% Tween21): 22.0% and 28.0% | Recovery Rate ([3]; WBCs, 350 pmol/10e6 cells, 0.0003% Tween20): 12.0% and 18.0% | Recovery Rate ([3]; WBCs, 350 pmol/10e6 cells, 0.001% Tween20): 10.0% and 15.0% | Recovery Rate ([3]; WBCs, 350 pmol/10e6 cells, 1:1 diluted): 22.0% and 25.0% | Recovery Rate ([3]; WBCs, 350 pmol/10e6 cells, US + 10′ 98° C.): 27.0% and 23.0% | Recovery Rate ([3]; WBCs, 350 pmol/10e6 cells, not evaporated, VIVA Spin): 18.0% and 19.0% | Recovery Rate ([3]; WBCs, 350 pmol/10e6 cells, untreated): 17.0% and 13.0% | Recovery Rate ([3]; WBCs, 1000 pmol/10e6 cells): 35.4% | Recovery Rate ([3]; WBCs, 1000 pmol/10e6 cells, not evaporated, VIVA Spin): 42.0% and 45.0% | WBC recovery rate after centrifugation, performance ranking [1]: best performance | WBC recovery rate after centrifugation, performance ranking [2]: best performance

5′-CholesterylTEG-CholesterylTEG-PEG2000-Fluos-3′ [29.891133]
Labelling (staining/uptake) of cells [5]: ✓ | Labelling (staining/uptake) of cells [6]: ✓ | Labelling (staining/uptake) of cells [7]: ✓ | Labelling (staining/uptake) of cells [8]: ✓ | Labelling (staining/uptake) of cells [9]: ✓ | Labelling (staining/uptake) of cells [10]: ✓ | Labelling (staining/uptake) of cells [11]: ✓ | Labelling (staining/uptake) of cells [12]: ✓

5′-CholesterylTEG-CholesterylTEG-PEG2000-Fluos-BiotinTEG-3′ [29.891180]
Recovery rate treated cells (SA-plate) ([3]; 2.16 μg/2 × 10e6 WBCs): 78.6% | Recovery rate treated cells (SA-plate) ([3]; 21.6 μg/2 × 10e6 WBCs): 68.6% | Recovery rate treated cells (SA-plate) ([3]; 216 μg/2 × 10e6 WBCs): 50.1% | Recovery rate treated cells (SA-plate) ([3]; 5 × 10e5 WBCs (MDA spiking experiment)): 70.0% and 70.8% | Recovery rate treated cells (SA-plate) ([3]; 10e6 WBCs (MDA spiking experiment)): 69.4% | Recovery rate treated cells (SA-plate) ([3]; 200 μl Zellsus.): 67.6% and 71.9% | Recovery rate treated cells (SA-plate) ([3]; 400 μl Zellsus.): 78.4% and 84.1% | Recovery rate treated cells (SA-plate) ([3]; 10 min 4° C.): 81.6% | Recovery rate treated cells (SA-plate) ([3]; 10 min RT): 88.3% | Recovery rate treated cells (SA-plate) ([3]; 800 μl Zellsus.): 81.1% and 86.4% | Recovery rate treated cells (SA-plate) ([3]; 60 min 4° C.): 81.7% | Recovery rate treated cells (SA-plate) ([3]; 60 min RT): 85.5% | Recovery rate treated cells (untreated-plate) ([3]; cells treated with compound, untreated plate): 56.7% | Recovery rate treated cells (SA-plate) ([13]; 10e4 MDAs in WBCs): 99.0% | Recovery rate treated cells (SA-plate) ([13]; 20e3 MDAs in WBCs): 102.0% | Recovery rate treated cells (SA-plate) ([13]; 40e3 MDAs in WBCs): 102.0%

CCCCCCCCCCCCCCCCCCN1C(=CC=CC2=[N+](CCCCCCCCCCCCCCCCCC)c3ccccc3C2(C)C)C(C)(C)c2ccccc21.[O-][Cl+3]([O-])([O-])[O-] [1,1′-Dioctadecyl-3,3,3′,3′-tetramethylindocarbocyanin perchlorate]
Labelling (staining/uptake) of cells [5]: ✓ | Labelling (staining/uptake) of cells [6]: ✓ | Labelling (staining/uptake) of cells [7]: ✓ | Labelling (staining/uptake) of cells [8]: ✓ | Labelling (staining/uptake) of cells [9]: ✓ | Labelling (staining/uptake) of cells [10]: ✓ | Labelling (staining/uptake) of cells [11]: ✓* | Labelling (staining/uptake) of cells [12]: ✓ | Labelling (staining/uptake) of cells [14]: ✓ not all

CCCCC/C=C\C/C=C\CCCCCCCCN1C(=CC=CC2=[N+](CCCCCCCC/C=C\C/C=C\CCCCC)c3ccccc3C2(C)C)C(C)(C)c2ccccc21.[O-][Cl+3]([O-])([O-])[O-] [Linol, 1,1′-dilinoleyl-3,3,3′,3′-tetramethylindocarbocyanine perchlorate]
Labelling (staining/uptake) of cells [5]: ✓ | Labelling (staining/uptake) of cells [6]: ✓ | Labelling (staining/uptake) of cells [7]: ✓ | Labelling (staining/uptake) of cells [8]: ✓ | Labelling (staining/uptake) of cells [9]: ✓ | Labelling (staining/uptake) of cells [10]: ✓ | Labelling (staining/uptake) of cells [11]: ✓ | Labelling (staining/uptake) of cells [12]: ✓

CCCCCCCCCCCCCCCCCCCCCC[N+]1=C(/C=C/C=C2/N(CCCCCCCCCCCCCC)c3ccccc3C2(C)C)C(C)(C)c2ccccc21.[I-] [PKH26]
Labelling (staining/uptake) of cells [5]: ✓ | Labelling (staining/uptake) of cells [6]: ✓ | Labelling (staining/uptake) of cells [7]: ✓ not all | Labelling (staining/uptake) of cells [8]: ✓* | Labelling (staining/uptake) of cells [9]: ✓ | Labelling (staining/uptake) of cells [10]: ✓ | Labelling (staining/uptake) of cells [11]: ✓ | Labelling (staining/uptake) of cells [12]: ✓

CCCCCCCCCCCCC/C=C/[C@@H](O)[C@H](COP(=O)([O-])OCC[N+](C)(C)C)NC(=O)CCCCc1ccc2n1[B-](F)(F)[N+]1=C(C)C=C(C)C1=C2 [Sphingomyelin, N-(4,4-difluoro-5,7-dimethyl-4-bora-3a,4a-diaza-s-indacene-3-pentanoyl)sphingosyl phosphocholine]
Labelling (staining/uptake) of cells [5]: x very weak | Labelling (staining/uptake) of cells [7]: ✓ | Labelling (staining/uptake) of cells [8]: ✓ | Labelling (staining/uptake) of cells [14]: (x)- very bad
